target: HIV-1 integrase; experiment: Integrase strand-transfer scintillation proximity assay; format: biochemical; settings: full-length wild type HIV-1 integrase (SF1), 50 min at 37°C
Method: The annealed product represents preprocessed viral ds-DNA derived from the LTR U5 sequence of the viral genome.
The radiolabeled product was purified using a NENSORB cartridge and stored in stabilized aqueous solution (PerkinElmer).
White, polystyrene, flat-bottom, non-binding surface, 96-well plates were purchased from Corning.
Supernant was discarded and pellet resuspended in 50 mM HEPES pH 7.0, 750 mM NaCl, 5 mM DTT, 1 mM AEBSF and homogenized in a 40 mL Dounce homogenizer for 20 minutes on ice. […] Supernant was discarded and pellet resuspended in 50 mM HEPES pH 7.0, 750 mM NaCl, 25 mM CHAPS, 5 mM DTT, 1 mM AEBSF.
Supernant was then diluted 1:1 with 50 mM HEPES pH 7.0, 25 mM CHAPS, 1 mM DTT, 1 mM AEBSF and loaded onto a Q-Sepharose column pre-equilibrated with 50 mM HEPES, pH 7.0, 375 mM NaCl, 25 mM CHAPS, 1 mM DTT, 1 mM AEBSF. The flow through peak was collected and NaCl diluted to 0.1 M with 50 mM HEPES pH 7.0, 25 mM CHAPS, 1 mM DTT, 0.5 mM AEBSF and loaded onto a SP-Sepharose column pre-equilibrated with 50 mM HEPES pH 7.0, 100 mM NaCl, 25 mM CHAPS, 1 mM DTT, 0.5 mM AEBSF. After washing the column with the equilibration buffer, a 100 to 400 mM NaCl gradient was run. The eluted integrase was concentrated and run on a S-300 gel diffusion column using 50 mM HEPES pH 7.0, 500 mM NaCl, 25 mM CHAPS, 1 mM DTT, 0.5 mM AEBSF. […]

Row | Molecule | IC50
1 | 1-[({[(4R)-2,2-dimethyl-1,3-dioxolan-4-yl]methyl}amino)meth yl]-3-(4-fluorobenzyl)-7-hydroxy-3,7-dihydro-6H-pyrrolo[2,3-c]-1,7-naphthyridin-6-one [Example 35] | 45 nM
2 | (3R)-1-{[3-(4-fluorobenzyl)-7-hydroxy-6-oxo-6,7-dihydro-3H-pyrrolo[2,3-c]-1,7-naphthyridin-1-yl]methyl)-N,N-dimethylpyrrolidine-3-carboxamide [Example 17] | 9 nM

system: RF strain of HIV-1; experiment: HIV-1 cell protection assay (XTT dye reduction); format: cell-based; settings: Human immunodeficiency virus 1, CEM-SS, 144 h, CEM-SS cells infected with HIV-1 RF, six days, XTT formazan; read-out: EC50
Method: Example 61: HIV-1 Cell Protection Assay
The antiviral activities of potential modulator compounds (test compounds) were determined in HIV-1 cell protection assays using the RF strain of HIV-1, CEM-SS cells, and the XTT dye reduction method (Weislow, O.S. et al., J. Natl. Cancer Inst. 81: 577-586 (1989)). Subject cells were infected with HIV-1 RF virus at an moi of 0.025 to 0.819 or mock infected with medium only and added at 2 x 10^4 cells per well into 96 well plates containing half-log dilutions of test compounds. Six days later, 50 µl of XTT solution (1 mg/ml XTT tetrazolium and […] phenazine methosulfate) were added to the wells and the plates were reincubated for four hours. Viability, as determined by the amount of XTT formazan produced, was quantified spectrophotometrically by absorbance at 450 nm.
Data from CPE assays were expressed as the percent of formazan produced in compound-treated cells compared to formazan produced in wells of uninfected, compound-free cells. […] The therapeutic index was calculated by dividing the cytotoxicity (CC50) by the antiviral activity (EC50).

Row | Molecule | EC50
3 | O=c1c2ncc3c(c(COCCOC4CCCCC4)cn3Cc3ccc(F)cc3)c2ccn1O [Example 34, 1-{[2-(cyclohexyloxy)ethoxy]methyl}-3-(4-fluorobenzyl)-7-hydroxy-3,7-dihydro-6H-pyrrolo[2,3-c]-1,7-naphthyridin-6-one] | 2 nM
4 | COCCOCc1cn(Cc2ccc(F)cc2)c2cnc3c(=O)n(O)ccc3c12 [Example 36, 3-(4-fluorobenzyl)-7-hydroxy-1-[(2-methoxyethoxy)methyl]-3,7-dihydro-6H-pyrrolo[2,3-c]-1,7-naphthyridin-6-one] | 0.4 nM
5 | O=c1c2ncc3c(c(COC4CCOCC4)cn3Cc3ccc(F)cc3)c2ccn1O [Example 37, 3-(4-fluorobenzyl)-7-hydroxy-1-[(tetrahydro-2H-pyran-4-yloxy)methyl]-3,7-dihydro-6H-pyrrolo[2,3-c]-1,7-naphthyridin-6-one] | 1 nM
6 | O=c1c2ncc3c(c(CNC4(CO)CCCC4)cn3Cc3ccc(F)cc3)c2ccn1O [Example 39, 3-(4-fluorobenzyl)-7-hydroxy-1-({[1-(hydroxymethyl)cyclopentyl]amino}methyl)-3,7-dihydro-6H-pyrrolo[2,3-c]-1,7-naphthyridin-6-one] | 4 nM
7 | CCCNCc1cn(Cc2ccc(F)cc2)c2cnc3c(=O)n(O)ccc3c12 [Example 40, 3-(4-fluorobenzyl)-7-hydroxy-1-[(propylamino)methyl] -3,7-dihydro-6H-pyrrolo[2,3-c]-1,7-naphthyridin-6-one] | 2 nM
8 | Cc1cccc(CNCc2cn(Cc3ccc(F)cc3)c3cnc4c(=O)n(O)ccc4c23)c1 [Example 41, 3-(4-fluorobenzyl)-7-hydroxy-1-{[(3-methylbenzyl)amino]methyl}-3,7-dihydro-6H-pyrrolo[2,3-c]-1,7-naphthyridin-6-one] | 3 nM
9 | Cc1cnc(CNCc2cn(Cc3ccc(F)cc3)c3cnc4c(=O)n(O)ccc4c23)cn1 [Example 42, 3-(4-fluorobenzyl)-7-hydroxy-1-({[(5-methylpyrazin-2-yl)methyl]amino}methyl)-3,7-dihydro-6H-pyrrolo[2,3-c]-1,7-naphthyridin-6-one] | 3 nM
10 | O=c1c2ncc3c(c(CNCc4ccc(C(F)(F)F)cc4)cn3Cc3ccc(F)cc3)c2ccn1O [Example 43, 3-(4-fluorobenzyl)-7-hydroxy-1-({[4-(trifluoromethyl)benzyl]amino)methyl)-3,7-dihydro-6H-pyrrolo[2,3-c]-1,7-naphthyridin-6-one] | 0.8 nM
11 | O=c1c2ncc3c(c(CNCc4ccccn4)cn3Cc3ccc(F)cc3)c2ccn1O [Example 44, 3-(4-fluorobenzyl)-7-hydroxy-1-{[(pyridin-2-ylmethyl)amino]methyl}-3,7-dihydro-6H-pyrrolo[2,3-c]-1,7-naphthyridin-6-one] | 0.74 nM
12 | O=C1c2ncc3c(ccn3Cc3ccc(F)cc3)c2CCCN1O [Example 45, 3-(4-fluorobenzyl)-7-hydroxy-7,8,9,10-tetrahydropyrrolo[3',2' :4,5]pyrido[2,3-c]azepin-6(3H)-one] | 20 nM
13 | CCCCc1cc2c(ncc3c2ccn3Cc2ccc(F)cc2)c(=O)n1O [Example 46, 8-butyl-3-(4-fluorobenzyl)-7-hydroxy-3,7-dihydro-6H-pyrrolo[2,3-c]-1,7-naphthyridin-6-one] | 9.6 nM
14 | Cc1cc2c(ncc3c2ccn3Cc2ccc(F)cc2)c(=O)n1O [Example 47, 3-(4-fluorobenzyl)-7-hydroxy-8-methyl-3,7-dihydro-6H-pyrrolo[2,3-c]-1,7-naphthyridin-6-one] | 0.23 nM
15 | CCCN(CCO)Cc1cn(Cc2ccc(F)cc2)c2cnc3c(=O)n(O)ccc3c12 [Example 48, 3-(4-fluorobenzyl)-7-hydroxy-1-{[(2-hydroxyethyl)(propyl)amino]methyl}-3,7-dihydro-6H-pyrrolo[2,3-c]-1,7-naphthyridin-6-one] | 1.2 nM
16 | O=c1c2ncc3c(c(CN4CCCCC4CO)cn3Cc3ccc(F)cc3)c2ccn1O (centres unmarked) [Example 49, 3-(4-fluorobenzyl)-7-hydroxy-1-{[2-(hydroxymethyl)piperidin-1-yl]methyl}-3,7-dihydro-6H-pyrrolo[2,3-c]-1,7-naphthyridin-6-one] | 14 nM
17 | CCN(CC)CCN(CC)Cc1cn(Cc2ccc(F)cc2)c2cnc3c(=O)n(O)ccc3c12 [Example 50, 1-{[[2-(diethylamino)ethyl](ethyl)amino]methyl}-3-(4-fluorobenzyl)-7-hydroxy-3,7-dihydro-6H-pyrrolo[2,3-c]-1,7-naphthyridin-6-one] | 8.6 nM
18 | CCN(Cc1ccc(C)cc1)Cc1cn(Cc2ccc(F)cc2)c2cnc3c(=O)n(O)ccc3c12 [Example 51, 1-{[ethyl(4-methylbenzyl)amino]methyl}-3-(4-fluorobenzyl)-7-hydroxy-3,7-dihydro-6H-pyrrolo[2,3-c]-1,7-naphthyridin-6-one] | 1.3 nM
19 | CCS(=O)(=O)N1CCN(Cc2cn(Cc3ccc(F)cc3)c3cnc4c(=O)n(O)ccc4c23)CC1 [Example 52, 1-{[4-(ethylsulfonyl)piperazin-1-yl]methyl}-3-(4-fluorobenzyl)-7-hydroxy-3,7-dihydro-6H-pyrrolo[2,3-c]-1,7-naphthyridin-6-one] | 1.6 nM
20 | O=c1c2ncc3c(c(CN4CCC(O)CC4)cn3Cc3ccc(F)cc3)c2ccn1O [Example 53, 3-(4-fluorobenzyl)-7-hydroxy-1-[(4-hydroxypiperidin-1-yl)methyl]-3,7-dihydro-6H-pyrrolo[2,3-c]-1,7-naphthyridin-6-one] | 13 nM
21 | CN(Cc1ccccc1)Cc1cn(Cc2ccc(F)cc2)c2cnc3c(=O)n(O)ccc3c12 [Example 54, 1-{[benzyl(methyl)amino]methyl}-3-(4-fluorobenzyl)-7-hydroxy-3,7-dihydro-6H-pyrrolo[2,3-c]-1,7-naphthyridin-6-one] | 0.42 nM
22 | O=c1c2ncc3c(c(CN4CCN5C[C@H](O)CC5C4)cn3Cc3ccc(F)cc3)c2ccn1O (stereo partly drawn) [Example 55, 3-(4-fluorobenzyl)-7-hydroxy-1-{[(7R)-7-hydroxyhexahydropyrrolo[1,2-a]pyrazin-2(1 H)-yl]methyl}-3,7-dihydro-6H-pyrrolo[2,3-c]-1,7-naphthyridin-6-one] | 69 nM
23 | O=C1NC[C@@H]2CCN(Cc3cn(Cc4ccc(F)cc4)c4cnc5c(=O)n(O)ccc5c34)C[C@H]12 [Example 56, 3-(4-fluorobenzyl)-7-hydroxy-1-{[(3aR,7aR)-3-oxooctahydro-5H-pyrrolo[3,4-c]pyridin-5-yl]methyl}-3,7-dihydro-6H-pyrrolo[2,3-c]-1,7-naphthyridin-6-one] | 14 nM
24 | O=c1c2ncc3c(c(CN4CCOCC4)cn3Cc3ccc(F)cc3)c2ccn1O [Example 57, 3-(4-fluorobenzyl)-7-hydroxy-1-(morpholin-4-ylmethyl)-3,7-dihydro-6H-pyrrolo[2,3-c]-1,7-naphthyridin-6-one] | 0.32 nM
25 | O=c1c2ncc3c(c(CN4CCN(CCN5CCOCC5)CC4)cn3Cc3ccc(F)cc3)c2ccn1O [Example 58, 3-(4-fluorobenzyl)-7-hydroxy-1-{[4-(2-morpholin-4-ylethyl)piperazin-1-yl]methyl}-3,7-dihydro-6H-pyrrolo[2,3-c]-1,7-naphthyridin-6-one] | 32 nM
26 | CN(Cc1cnn(-c2ccccc2)c1)Cc1cn(Cc2ccc(F)cc2)c2cnc3c(=O)n(O)ccc3c12 [Example 59, 3-(4-fluorobenzyl)-7-hydroxy-1-({methyl[(1-phenyl-1 H-pyrazol-4-yl)methyl]amino}methyl)-3,7-dihydro-6H-pyrrolo[2,3-c]-1,7-naphthyridin-6-one] | 0.74 nM

— patent EP1873155A1, “Inhibitors of the HIV integrase enzyme” (PFIZER INC., priority 2004, dated 2005)
